Reference: patent US12011447B2, “Pharmaceutical composition for treating thyroid cancer comprising tyrosine kinase activity inhibitor as active ingredient” (Kyungpook National University Industry-Academic Cooperation …, priority 2017, dated 2024)

Key:
[1] = test system: NIS; test: Immunohistochemistry of NIS in tumor tissue; assay type: in vivo, Balb/c nude mice; conditions: xenograft tumor sections
Excerpt: At the end of the experiment, the mice were sacrificed, and the tumors were isolated from the mouse's right flank and fixed overnight with 4% formalin. The isolated tumors were embedded in paraffin, sectioned to a 4-μm thickness, and mounted on slides. The tumor sections on the slides were de-paraffinized and stained with hematoxylin & eosin. For immunohistochemistry, NIS (Thermo Fisher Scientific; diluted at 1:200) and cleaved caspase-3 (Cell signaling; diluted at 1:200) antibodies were used.

[2] = test system: 8505C cells; test: In vitro 125I uptake assay; assay type: cell-based, human; conditions: anaplastic thyroid cancer cells, 24 hours treatment
Description: 8505C cells (1.25×10^5) were seeded and incubated in a 24-well plate for 24 hours, and then treated with TKI-0266 and further incubated for 24 hours. Thereafter, the medium was removed, and the cells were washed with bHBSS (Hank's balanced salt solution containing 0.5% BSA). The cells were incubated with 500 μl of bHBSS, 3.7 kBq carrier-free ^125I (Perkin-Elmer), and 10 μmol/L sodium iodide (specific activity of 740 MBq/mmol) at 37° C. for 30 minutes. Thereafter, the cells were washed twice with cold bHBSS and lysed by adding 500 μL of 2% SDS solution thereto. Radioactivity was measured using a Cobra II gamma-counter (Canberra Packard, Canada). The ^125I uptake values were normalized by comparing the amount of total protein determined by BCA protein assay kit.

[3] = test system: NIS (sodium iodide symporter); test: Western blot of endogenous NIS protein (total, membrane, cytosolic); assay type: cell-based, human
Description: (§1) 8505C-PNIS-PCMV cells were treated with TKI-0266 and incubated for 24 hours, and then the cell pellet was washed twice with cold phosphate-buffered saline (hereinafter referred to as PBS). An RIPA buffer (Thermo Fisher Scientific, USA) containing a protease/phosphatase cocktail inhibitor kit (Thermo Fisher Scientific) was added to the cell pellet to lyse the cells. The lysed cells were gently vortexed three times at a time interval, and centrifuged at 13000xg at 4° C. to isolate a soluble protein. The isolated protein was quantified using a BCA protein assay kit (Thermo Fisher Scientific).
Membrane protein and cytosolic protein were isolated using Mem-PET™ plus kit (Thermo Fisher scientific) according to the manufacturer's protocols. Briefly, the collected cell pellet was washed with a cell wash solution and centrifuged at 300xg for 5 minutes, and this washing and centrifugation process was repeated two times. After centrifugation, the supernatant was discarded, and a permeabilization buffer was added to the cell pellet, followed by vortexing. Thereafter, the cell pellet was left to stand at 4° C. for 10 minutes with continuous stirring. After centrifugation, the supernatant containing cytosolic protein was collected, and a solubilization buffer was added to the remaining cell pellet which was then left to stand at 4° C. for 10 minutes with continuous stirring. After centrifugation again at 300xg for 5 minutes, the membrane protein was transferred into a fresh tube.
(§2) Equal amounts of proteins were separated by 10% SDS-PAGE (sodium dodecyl sulfate-polyacrylamide gel electrophoresis), and then the proteins were transferred to PVDF membranes (Millipore, USA). The PVDF membrane was blocked with 3% BSA (bovine serum albumin) in TBS containing Tween-20 (TBS-T) for 1 hour, and incubated with primary antibodies in 0.5% BSA overnight at 4° C. The next day, the PVDF membrane was incubated with HRP-conjugated secondary antibodies at room temperature for 1 hour, and washed three times with TBS-T. The protein bands were visualized using ECL detection reagent (GE Healthcare Life Sciences, Italy) and the Fusion FX chemiluminescence analyzer system (Vilber lourmat, France). […]

[4] = test system: anaplastic thyroid cancer xenograft (8505C-PNIS-PCMV); test: In vivo bioluminescence imaging of F-luc2 (NIS expression); set-up: species or system Balb/c nude mice; conditions: 50 mg/kg every day for 5 days, D-luciferin
Description: Female Balb/c nude mice, 5.5-week old with an average weight of 18.9±0.37 g (mean±standard deviation [SD]), were purchased (Hamamatsu, Shizuoka, Japan). The mice were acclimated under specific pathogen-free conditions for one week before starting the experiment, and were maintained at a temperature of 20 to 25° C. and a relative humidity of 40 to 70%. To establish anaplastic thyroid cancer xenograft mouse models, 8505C-PNIS-PCMV s (5×10^6) were mixed with Matrigel (Corning) at a ratio of 1:1 and injected subcutaneously into the right flank region of each mouse.
In order to examine whether the expression of NIS would be increased by TKI-0266, mice for use in the experiment were divided into two groups (n=5): the vehicle group; and the TKI-0266-administered group (50 mg/kg). 50 mg/kg of TKI-0266 was administered intravenously to the established anaplastic thyroid cancer xenograft mice every day for 5 days. On day 0 (before administration of TKI-0266) and day 6 after the start of administration of TKI-0266, to measure the R-luc signal with IVIS Lumina III, h-coelenterazine (15 μg/ml) was administered to the mice by intravenous injection. Next, D-luciferin (150 μg/ml) was administered intraperitoneally to the mice, and the bioluminescence image (hereinafter referred to as BLI) was acquired.

[5] = test system: p-AKT; test: Western blot of phosphorylated AKT; assay type: cell-based, human; conditions: 8505C-PNIS-PCMV cells
Description: as §1, §2

[6] = test system: p-ERK; test: Western blot of phosphorylated ERK; assay type: cell-based, human; conditions: 8505C-PNIS-PCMV cells
Description: as §1, §2

## Cc1cc2c(N(C)C3CCCCC3)ncnc2s1 [TKI-0266]
[1]
  expression of NIS-specific protein in tumor tissue (immunohistochemistry): high
[2]
  iodine uptake compared to vehicle group: significantly increased
[3]; 8505C-PNIS-PCMV cells, 24 hours, Western blot
  expression of endogenous NIS protein: significantly increased
[3]; 8505C-PNIS-PCMV cells, Western blot
  treatment concentration with the highest NIS protein expression: 12.5 µM
[3]; cytosolic protein fraction
  expression of cytosolic NIS protein: uptick
[3]; membrane protein fraction
  expression of membrane NIS protein: increased mainly in the cell membrane
[4]
  activity of F-luc2 in vivo (NIS expression): significantly increased
[5]
  level of phosphorylated-AKT (p-AKT) protein vs vehicle: little difference
[6]
  level of phosphorylated ERK (p-ERK) protein: significantly decreased
